The test system of data set [1] is H460 cells. The data set is described as follows: Cell invasion (Matrigel Transwell). In kind it is cell-based, human. The conditions noted are these: 100 nmol/L, 48 h. Here is the method: Matrigel (basement membrane matrix) was thawed on crushed ice one night before and diluted with serum-free medium to a final concentration of 200-300 ug/mL. 100 uL of the diluted Matrigel was added to each upper chamber, let stand at 37° C. for 30 min, and the supernatant was aspirated. H460 cells with a cell density of more than 90% in 10 cm^2 dishes were digested and resuspended with 1 mL of serum-free medium and counted. 100,000 cells (100 uL) were plated in the upper chamber, and complete medium with 10% FBS was added to the lower chamber of each chamber. Transfection was performed after 12 h, and the groups (3 wells per group) were divided as follows: • blank control group: 20 uL of opti-MEM • negative control group (NC group) and experimental group: • A. 10 uL of opti-MEM and 0.2 uL of iMax were mixed well for 5 min • B. 10 uL of opti-MEM and 0.5 uL of small RNA (final concentration 100 nmol/L) were mixed well • C. solution A and solution B were mixed well and let stand for 15 min, and then was added to each well at a 20 uL system • Note: 100 uL of nuclease-free water was added to 2 nmol of small RNA dry powder for dissolution at a storage concentration of 20 umol/L
After 48 h, the medium in upper and lower chambers was discarded. The cells were fixed with paraformaldehyde at room temperature for 15 min, stained with 0.1% crystal violet at room temperature for 15 min, and rinsed with PBS. The cells in the upper chamber were gently wiped off with cotton swabs, and the chamber was dried. A Leica inverted microscope DMi8 was turned on, the 5× objective lens was selected, the parameters were adjusted and the white balance was performed following the manual. Each chamber was photographed, followed by counting and statistic processing.
1) Matrigel basement membrane matrix was thawed on crushed ice one night before and diluted with serum-free medium to a final concentration of 200-300 ug/mL. […] H460 cells with a cell density of more than 90% in 10 cm^2 dishes were digested and resuspended with 1 mL of serum-free medium and counted. […]

The test system of data set [2] is primary lung cancer Kras^LSL-G12Dp53^fl/fl (KP) mouse model. The data set is described as follows: Transcriptome sequencing of lung tissue, pathway clustering of differentially expressed genes. In kind it is in vivo. The following applies: KP mouse lung tissue after 30 days of dosing, metacore pathway clustering, vs NC group. The text has this: The mouse model of primary lung cancer was Kras^LSL-G12Dp53^fl/fl (KP). Mice were weighed and assigned to the NC group and HQi-sRNA-2 group randomly. The NC group was the negative control, in which a sphingosine(d18:1)-NC-sRNA herbal medicine delivery system was constructed from NC-sRNA. The HQi-sRNA-2 group was the experimental group, in which a sphingosine(d18:1)-HQi-sRNA-2 herbal medicine delivery system was constructed from HQi-sRNA-2. The herbal medicine delivery system was constructed by heating and mixing 10 nmol of sRNA, 100 ug of sphingosine(d18:1) and 300 ul of sterile enzyme-free water in a water bath at 90° C. for 15 minutes. Mouse lung tissue was collected after 30 days of dosing, and the total RNA was extracted and subjected to non-strand-specific transcriptome sequencing. The differentially expressed genes in the experimental group and the control group were analyzed and calculated by a bioinformatics software, and the biological pathways in which the differentially expressed genes mainly functioned were analyzed by clustering using the metacore database. The pathways of the differentially expressed genes were visualized by the visualization software package ggplot2.
The mouse model of primary lung cancer was Kras^LSL-G12Dp53^fl/fl (KP). Mice were weighed and assigned to the NC group and MDM-sRNA-39 group randomly. […] The differentially expressed genes in the experimental group and the control group were analyzed and calculated by a bioinformatics software, and the biological pathways in which the differentially expressed genes mainly functioned were analyzed by clustering using the metacore database. […]
The mouse model of primary lung cancer was Kras^LSL-G12Dp53^fl/fl (KP). […] The differentially expressed genes in the experimental group and the control group were analyzed and calculated by a bioinformatics software, and the biological pathways in which the differentially expressed genes mainly functioned were analyzed by clustering using the metacore database. […]

Take “HQi-sRNA-2: small RNA derived from Scutellaria baicalensis, sequence AUGGUUCGAUUCCGGAGAGGG (listed as RNA, chemistry not given here)”: in data set [1], the cell invasion result was “inhibits”. The “functions of genes down-regulated at transcriptional level” value (shortened to “functions of genes down-regulated”) in data set [2] was “mainly clustered in oncology, immunology and other related biological pathways”.

“MDM-sRNA-163: small RNA derived from Maytenus hookeri, sequence UGACUCUAGUCCGACUUUGUGAAAUGACU (listed as RNA, chemistry not given here)”: the cell invasion entry in data set [1] was “inhibits”. Besides, the “functions of genes down-regulated” value in data set [2] is “mainly clustered in oncology, immunology, and other related biological pathways”.

On to “MDM-sRNA-39: small RNA derived from Maytenus hookeri, sequence GGGAUUGUAGUUCAAUUGGUCAGAGCACC (listed as RNA, chemistry not given here)”, for which, in data set [1], the cell invasion entry is reported as “inhibits”. For the same substance, the “functions of genes down-regulated” value in data set [2] is “mainly clustered in oncology, immunology and other related biological pathways”.

These data come from patent US20250302862A1, “SMALL RNA DRUG FOR INHIBITING ACTIVITY OF CANCER CELLS” (Institute of Basic Medical Sciences Chinese Academy of …, priority 2022, published 2025).
